Data taken from ChEMBL document CHEMBL5465560, “Selectivity Literature for EUbOPEN Chemogenomic Library” (2024).
Blank lines part the entries; values can stand above or below the compound they belong to.

How the values were obtained:
[1] = target: T1, Serine/threonine-protein kinase NLK (Homo sapiens) (UniProt Q9UBE8); assay: Selectivity interaction (KinomeScan (DiscoverX)) EUB0000607a NLK; conditions: at 10 µM
T1 sequence (whole entry): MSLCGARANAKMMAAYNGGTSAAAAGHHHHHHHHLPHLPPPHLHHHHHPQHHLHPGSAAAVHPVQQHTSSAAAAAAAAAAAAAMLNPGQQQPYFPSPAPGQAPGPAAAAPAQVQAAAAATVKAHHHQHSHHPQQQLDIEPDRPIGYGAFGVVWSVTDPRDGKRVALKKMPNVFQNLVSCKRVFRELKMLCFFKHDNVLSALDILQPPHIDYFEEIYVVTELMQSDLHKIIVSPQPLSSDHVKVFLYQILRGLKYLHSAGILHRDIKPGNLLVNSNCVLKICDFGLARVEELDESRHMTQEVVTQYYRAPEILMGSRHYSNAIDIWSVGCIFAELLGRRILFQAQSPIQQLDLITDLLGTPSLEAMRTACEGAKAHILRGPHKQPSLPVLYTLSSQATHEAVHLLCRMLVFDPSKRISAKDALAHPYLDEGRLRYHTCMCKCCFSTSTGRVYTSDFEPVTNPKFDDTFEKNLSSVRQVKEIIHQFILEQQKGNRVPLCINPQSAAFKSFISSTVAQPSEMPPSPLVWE

[2] = target: Myosin light chain kinase, smooth muscle (Homo sapiens, UniProt Q15746); assay: Selectivity interaction (ProQinase) EUB0000171b MYLK
Sequence of Myosin light chain kinase, smooth muscle (Q15746 whole entry): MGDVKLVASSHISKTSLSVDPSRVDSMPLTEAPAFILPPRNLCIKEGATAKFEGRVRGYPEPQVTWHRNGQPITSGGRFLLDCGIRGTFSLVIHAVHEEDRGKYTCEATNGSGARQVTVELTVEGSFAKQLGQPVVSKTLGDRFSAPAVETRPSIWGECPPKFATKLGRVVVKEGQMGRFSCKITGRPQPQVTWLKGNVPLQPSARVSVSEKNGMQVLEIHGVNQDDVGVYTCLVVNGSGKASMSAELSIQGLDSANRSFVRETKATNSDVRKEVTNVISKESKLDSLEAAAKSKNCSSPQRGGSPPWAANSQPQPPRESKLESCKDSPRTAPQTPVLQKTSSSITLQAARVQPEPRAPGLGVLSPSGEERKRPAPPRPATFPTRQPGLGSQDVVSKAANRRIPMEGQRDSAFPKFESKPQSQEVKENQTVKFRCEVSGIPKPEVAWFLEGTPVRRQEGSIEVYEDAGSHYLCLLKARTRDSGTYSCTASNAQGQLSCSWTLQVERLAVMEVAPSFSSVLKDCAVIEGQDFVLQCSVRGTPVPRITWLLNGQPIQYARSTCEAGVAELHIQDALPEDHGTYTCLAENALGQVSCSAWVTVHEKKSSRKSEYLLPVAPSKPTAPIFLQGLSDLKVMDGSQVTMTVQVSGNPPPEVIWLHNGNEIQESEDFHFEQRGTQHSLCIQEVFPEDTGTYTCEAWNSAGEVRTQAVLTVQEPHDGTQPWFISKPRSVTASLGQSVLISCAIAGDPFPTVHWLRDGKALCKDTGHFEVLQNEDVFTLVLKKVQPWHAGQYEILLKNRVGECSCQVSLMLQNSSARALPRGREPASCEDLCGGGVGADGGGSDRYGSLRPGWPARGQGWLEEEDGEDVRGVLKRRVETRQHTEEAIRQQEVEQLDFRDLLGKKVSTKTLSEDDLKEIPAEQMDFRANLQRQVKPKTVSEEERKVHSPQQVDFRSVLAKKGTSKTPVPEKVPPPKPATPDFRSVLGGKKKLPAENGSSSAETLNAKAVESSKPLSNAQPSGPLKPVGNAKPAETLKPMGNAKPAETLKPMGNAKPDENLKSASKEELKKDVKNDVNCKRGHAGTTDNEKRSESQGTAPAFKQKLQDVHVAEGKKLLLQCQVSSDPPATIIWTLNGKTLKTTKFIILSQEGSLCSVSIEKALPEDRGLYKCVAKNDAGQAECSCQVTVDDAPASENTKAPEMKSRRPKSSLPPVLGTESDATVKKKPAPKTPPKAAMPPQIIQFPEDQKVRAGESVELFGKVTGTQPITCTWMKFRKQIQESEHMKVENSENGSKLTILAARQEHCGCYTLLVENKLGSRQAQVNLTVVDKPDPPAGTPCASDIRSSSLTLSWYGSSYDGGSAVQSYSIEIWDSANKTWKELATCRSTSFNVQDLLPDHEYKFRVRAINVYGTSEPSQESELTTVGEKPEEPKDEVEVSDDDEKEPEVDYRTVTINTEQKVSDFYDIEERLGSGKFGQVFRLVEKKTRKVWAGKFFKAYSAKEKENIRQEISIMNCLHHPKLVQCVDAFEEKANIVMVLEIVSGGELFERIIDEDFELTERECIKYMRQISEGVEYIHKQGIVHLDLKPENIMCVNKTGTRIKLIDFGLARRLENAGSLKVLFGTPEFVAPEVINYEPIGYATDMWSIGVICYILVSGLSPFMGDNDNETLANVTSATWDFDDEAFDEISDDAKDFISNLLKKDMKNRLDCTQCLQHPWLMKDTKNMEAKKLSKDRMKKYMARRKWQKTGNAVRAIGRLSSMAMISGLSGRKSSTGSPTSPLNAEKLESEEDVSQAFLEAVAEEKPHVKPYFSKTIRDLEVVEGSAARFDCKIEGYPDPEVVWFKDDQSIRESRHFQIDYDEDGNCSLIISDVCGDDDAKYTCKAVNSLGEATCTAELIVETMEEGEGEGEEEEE

[3] = target: SRSF protein kinase 2 (Homo sapiens) (UniProt P78362); assay: Selectivity interaction (ProQinase) EUB0000171b SRPK2
Sequence of SRSF protein kinase 2 (Homo sapiens) (P78362 whole entry, looked up): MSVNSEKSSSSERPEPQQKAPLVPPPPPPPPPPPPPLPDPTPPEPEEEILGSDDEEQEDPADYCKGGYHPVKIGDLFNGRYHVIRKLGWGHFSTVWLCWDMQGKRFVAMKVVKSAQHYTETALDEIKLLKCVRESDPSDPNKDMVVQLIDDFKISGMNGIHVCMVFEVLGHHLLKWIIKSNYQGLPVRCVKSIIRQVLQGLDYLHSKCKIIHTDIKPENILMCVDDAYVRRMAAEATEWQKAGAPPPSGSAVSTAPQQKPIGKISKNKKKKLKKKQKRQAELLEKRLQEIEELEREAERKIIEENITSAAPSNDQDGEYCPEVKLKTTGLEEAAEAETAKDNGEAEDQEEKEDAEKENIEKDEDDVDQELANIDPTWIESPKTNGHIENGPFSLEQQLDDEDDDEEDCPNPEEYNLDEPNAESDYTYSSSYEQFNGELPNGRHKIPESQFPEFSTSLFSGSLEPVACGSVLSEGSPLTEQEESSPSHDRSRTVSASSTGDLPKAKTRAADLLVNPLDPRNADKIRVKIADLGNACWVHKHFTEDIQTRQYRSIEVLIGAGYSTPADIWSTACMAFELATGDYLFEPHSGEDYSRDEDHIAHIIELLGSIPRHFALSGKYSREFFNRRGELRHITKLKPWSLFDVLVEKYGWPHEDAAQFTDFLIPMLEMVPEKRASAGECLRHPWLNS

[4] = target: Cyclin-dependent kinase 16 (Homo sapiens) (UniProt Q00536); assay: Selectivity interaction (KinomeScan (DiscoverX)) EUB0000695a CDK16; conditions: at 100 nM
Sequence of Cyclin-dependent kinase 16 (Homo sapiens) (Q00536 whole entry): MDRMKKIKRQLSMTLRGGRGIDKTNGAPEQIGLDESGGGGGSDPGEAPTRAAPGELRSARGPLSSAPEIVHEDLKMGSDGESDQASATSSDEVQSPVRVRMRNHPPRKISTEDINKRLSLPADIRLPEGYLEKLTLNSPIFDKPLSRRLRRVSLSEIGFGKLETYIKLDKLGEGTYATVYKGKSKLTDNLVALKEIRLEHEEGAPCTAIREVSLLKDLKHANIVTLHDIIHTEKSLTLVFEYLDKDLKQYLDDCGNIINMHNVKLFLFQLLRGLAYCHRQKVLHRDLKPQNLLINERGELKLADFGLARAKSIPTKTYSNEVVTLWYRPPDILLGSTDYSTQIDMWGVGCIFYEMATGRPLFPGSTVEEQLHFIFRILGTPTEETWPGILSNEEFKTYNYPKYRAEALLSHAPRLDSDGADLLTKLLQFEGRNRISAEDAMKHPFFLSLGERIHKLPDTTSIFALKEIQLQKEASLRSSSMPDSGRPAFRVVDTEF

[5] = target: T2, Serine/threonine-protein kinase 3 (Homo sapiens) (UniProt Q13188); assay: Selectivity interaction (Millipore kinase profiler) EUB0000124b STK3; conditions: at 10 µM
T2 sequence (whole entry): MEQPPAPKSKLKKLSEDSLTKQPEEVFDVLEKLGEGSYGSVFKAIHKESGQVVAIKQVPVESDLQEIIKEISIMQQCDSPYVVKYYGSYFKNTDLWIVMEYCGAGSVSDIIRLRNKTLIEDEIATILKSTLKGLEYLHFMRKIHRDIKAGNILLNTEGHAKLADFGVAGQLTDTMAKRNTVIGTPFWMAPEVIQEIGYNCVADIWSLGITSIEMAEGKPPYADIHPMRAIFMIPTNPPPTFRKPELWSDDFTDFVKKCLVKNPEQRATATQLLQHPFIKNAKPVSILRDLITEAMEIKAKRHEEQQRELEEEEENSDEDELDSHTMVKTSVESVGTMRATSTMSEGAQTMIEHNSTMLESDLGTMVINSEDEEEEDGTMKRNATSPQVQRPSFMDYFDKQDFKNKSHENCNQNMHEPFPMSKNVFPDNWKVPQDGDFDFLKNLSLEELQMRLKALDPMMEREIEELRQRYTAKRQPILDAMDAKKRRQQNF

[6] = target: RAF proto-oncogene serine/threonine-protein kinase (Homo sapiens) (UniProt P04049); assay: Selectivity interaction (Ambit KINOMEscan and KiNATiv profiling in Jurkat cells) EUB0000090b RAF1; assay type: cell-based; conditions: at 1 µM
Sequence of RAF proto-oncogene serine/threonine-protein kinase (Homo sapiens) (P04049 whole entry): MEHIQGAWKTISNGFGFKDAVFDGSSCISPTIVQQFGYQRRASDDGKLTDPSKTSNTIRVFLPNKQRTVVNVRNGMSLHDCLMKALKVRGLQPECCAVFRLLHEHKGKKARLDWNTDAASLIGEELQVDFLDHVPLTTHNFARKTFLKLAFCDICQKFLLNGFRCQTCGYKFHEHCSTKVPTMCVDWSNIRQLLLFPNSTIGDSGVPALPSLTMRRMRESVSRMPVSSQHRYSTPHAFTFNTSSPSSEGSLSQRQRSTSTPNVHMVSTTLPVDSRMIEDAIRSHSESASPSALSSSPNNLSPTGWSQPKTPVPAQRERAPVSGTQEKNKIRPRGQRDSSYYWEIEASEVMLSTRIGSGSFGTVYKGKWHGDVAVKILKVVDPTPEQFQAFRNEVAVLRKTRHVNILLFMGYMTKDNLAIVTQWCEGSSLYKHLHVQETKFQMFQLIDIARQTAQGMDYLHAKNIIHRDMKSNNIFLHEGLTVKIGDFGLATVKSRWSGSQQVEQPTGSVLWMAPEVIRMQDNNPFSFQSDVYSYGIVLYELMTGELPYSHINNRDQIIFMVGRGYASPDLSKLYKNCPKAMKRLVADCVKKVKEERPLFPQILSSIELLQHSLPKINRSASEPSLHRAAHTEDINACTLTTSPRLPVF

[7] = target: T3, Dual specificity tyrosine-phosphorylation-regulated kinase 2 (Homo sapiens) (UniProt Q92630); assay: Selectivity interaction (Kinase panel (DSF assay)) EUB0001558a DYRK2
T3 sequence (whole entry): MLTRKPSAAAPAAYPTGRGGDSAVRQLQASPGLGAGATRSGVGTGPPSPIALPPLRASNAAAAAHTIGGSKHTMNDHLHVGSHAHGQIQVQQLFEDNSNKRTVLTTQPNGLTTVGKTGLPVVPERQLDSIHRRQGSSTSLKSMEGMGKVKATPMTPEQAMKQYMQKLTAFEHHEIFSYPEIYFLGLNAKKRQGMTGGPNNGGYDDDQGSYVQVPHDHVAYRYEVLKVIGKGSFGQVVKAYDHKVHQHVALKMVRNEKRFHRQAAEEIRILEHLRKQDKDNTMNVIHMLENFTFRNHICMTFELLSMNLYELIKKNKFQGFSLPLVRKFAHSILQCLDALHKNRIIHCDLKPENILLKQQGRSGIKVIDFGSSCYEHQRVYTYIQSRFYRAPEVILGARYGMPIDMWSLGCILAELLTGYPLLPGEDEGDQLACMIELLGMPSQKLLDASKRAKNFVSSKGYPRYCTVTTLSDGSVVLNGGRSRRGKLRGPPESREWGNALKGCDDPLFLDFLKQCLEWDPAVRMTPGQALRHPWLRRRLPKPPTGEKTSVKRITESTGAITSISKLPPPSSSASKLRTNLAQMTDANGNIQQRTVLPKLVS

[8] = target: T4, Aurora kinase A (Homo sapiens) (UniProt O14965); assay: Selectivity interaction (KinomeScan (DiscoverX)) EUB0000618a STK6; conditions: at 10 µM
T4 sequence (whole entry): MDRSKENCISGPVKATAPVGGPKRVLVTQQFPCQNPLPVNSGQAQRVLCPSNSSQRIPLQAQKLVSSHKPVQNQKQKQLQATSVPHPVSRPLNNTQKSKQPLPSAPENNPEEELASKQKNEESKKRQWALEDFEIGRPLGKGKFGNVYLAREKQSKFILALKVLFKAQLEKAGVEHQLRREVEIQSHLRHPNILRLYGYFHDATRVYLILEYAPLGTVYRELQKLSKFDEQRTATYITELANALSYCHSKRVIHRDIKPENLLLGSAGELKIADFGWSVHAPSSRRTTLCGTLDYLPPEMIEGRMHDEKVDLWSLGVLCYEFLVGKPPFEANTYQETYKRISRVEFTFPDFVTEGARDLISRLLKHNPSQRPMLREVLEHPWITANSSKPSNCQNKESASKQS

SMILES: CNC(=O)Nc1ccc(-c2nc(N3CC4CCC(C3)O4)c3cnn(C4CCC5(CC4)OCCO5)c3n2)cc1
% of control [1]: 85%

% of control ([2]; at 1 µM): 84%
% of control ([2]; at 5 µM): 60%
% of control ([3]; at 1 µM): 82%
% of control ([3]; at 5 µM): 75%
SMILES: C=CC(=O)Nc1cccc(C(=O)Nc2ccc(Nc3cc(-c4[nH]c(SC)nc4C)ccn3)cc2)c1

SMILES: Cc1cc(F)c(C(=O)Nc2cccc(-c3nncn3C(C)C)n2)cc1-n1cnc(C2CC2)c1
% of control [4]: 75%

% of control [5]: 94%
SMILES: CC(=O)Nc1cccc(-n2c(=O)n(C3CC3)c(=O)c3c(Nc4ccc(I)cc4F)n(C)c(=O)c(C)c32)c1

SMILES: CN(C)C/C=C/C(=O)Nc1ccc(C(=O)N2CCCC(Nc3ncc(Cl)c(-c4c[nH]c5ccccc45)n3)C2)cc1 (stereo not given)
% of control [6]: 91%

SMILES: CC(C)(O)[C@H](F)CN1Cc2cc(NC(=O)c3cnn4cccnc34)c(N3CCOCC3)cc2C1=O
dTM [7]: 5 K

SMILES: O[C@H]1CC[C@H](Nc2ncc3nc(Nc4c(F)cc(F)cc4F)n([C@H]4CCOC4)c3n2)CC1
% of control [8]: 91%
